The source of these data is US12102104B2, “Carbonation sensation enhancing agent for foods and beverages having carbonate stimulation” (Ogawa & Co., Ltd., priority 2018, dated 2024).

Data set [1] concerns expert panelists. The data set can be described thus: Test Example 3: equivalent carbon dioxide gas pressure by paired comparison. It is filed as in vivo, human. Conditions: base 1.3 kg/cm^2, polygodial 10 ppb (Example 7). From the text:
The strength of carbonate stimulation of the carbonated water of Example 7 prepared by adding the Persicaria hydropiper extract of Production Example 1 to the carbonated water for evaluation of Preparation Example 1 (1.3 kg/cm^2) and the strength of carbonate stimulation of the carbonated waters described in Table 3 (1.4 kg/cm^2, 1.6 kg/cm^2, 1.9 kg/cm^2) separately prepared as a control were compared by 18 to 20 expert panelists. The number of panelists who judged that the carbonated water of Example 7 had strong carbonation and the selectivity of the carbonated water of Example 7 are shown in Table 3.
Furthermore, the relation between the concentration of carbon dioxide gas in the control product and the selectivity of the carbonated water of Example 7 was plotted (see FIG. 1).
Thus, it is considered that addition of polygodial has the same effect as increasing the pressure of carbon dioxide gas by 0.3 kg/cm^2.

Data set [2] relates to expert panelists. The data set can be described thus: Test Example 2: sensory comparison of polygodial with known carbonation sensation enhancing agents. It is filed as in vivo, human. The protocol: Sensory evaluation of the samples of Example 4 and Comparative Examples 3 to 11 was performed by 10 expert panelists based on the following Evaluation criteria 1 to 3 using the carbonated water for evaluation of Preparation Example 1 as a control.
[Evaluation Criteria 1] (Strength of Carbonate Stimulation)
(Mode of Generation of Carbonate Stimulation)
Mode of generation of carbonate stimulation was defined as follows and the timing when the highest effect was felt was selected. The timing that won a majority (6 panelists or more) was regarded as the mode of generation of carbonate stimulation of the substance. In the case of a tie (5 panelists for each), the result was referred to as middle.
Initial: stimulation felt immediately after the sample was put in one's mouth. The impact at the moment when one took the sample.
Last: stimulation felt after swallowing the sample. Aftertaste and feeling when going down. Delayed effect.
[Evaluation Criteria 3] (Characteristics of Flavor)
Majority opinions were obtained from panelists' free descriptions of characteristics of flavor they felt.

Data set [3] deals with expert panelists. Put plainly: Test Example 1: sensory evaluation of carbonated water with polygodial. Format: in vivo, human. The protocol:
Carbonated water for evaluation was prepared by diluting commercially available carbonated water (pressure of carbon dioxide gas before opening 3.0 kg/cm^2) with water such that the pressure of carbon dioxide gas was 1.3 kg/cm^2.
Polygodial (manufactured by Wako Pure Chemical Industries, Ltd.) was added to the carbonated water for evaluation of Preparation Example 1 such that the concentration was as shown in Table 1 described later and this was referred to as Comparative Examples 1 and 2, and Examples 1 to 6.
20 ppm of the Persicaria hydropiper extract of Production Example 1 was added to the carbonated water for evaluation of Preparation Example 1 and this was referred to as Example 7.
0.05 ppm of Tasmannia lanceolata oil (manufactured by ESSENTIAL OILS OF TASMANIA PTY LTD, polygodial content 20%) was added to the carbonated water for evaluation of Preparation Example 1 and this was referred to as Example 8. […]
Sensory evaluation was performed by 10 expert panelists based on the following Evaluation criteria using a product to which polygodial was not added as a control. For the strength of an offensive taste and odor, the average of the score of the 10 panelists was calculated and determined as the result of evaluation. […]

Data set [4] is described as follows: Decomposition of polygodial on distillation. It is filed as physicochemical. Conditions: yield significantly reduced. From the text:
Thus, distillation needs to be performed under reduced pressure using a known vacuum pump such as oil rotary pump, a mechanical booster pump and a diffusion pump.

As to `CC1(C)CCC[C@]2(C)[C@@H](C=O)C(C=O)=CC[C@@H]12` [polygodial, (1R,4aS,8aS)-5,5,8a-trimethyl-1,4,4a,6,7,8-hexahydronaphthalene-1,2-dicarboxaldehyde], the “Increase of pressure of carbon dioxide gas having the same effect as addition” value with expert panelists [1] was 0.3 kg/cm^2. In the data set on expert panelists [2], the “Timing of the effect of enhancing carbonation sensation” value was “immediate effect”. Also, the “Enhancement of carbonation sensation” value in the data set with expert panelists [3] (polygodial 0.01 ppb) was “not enhanced”. Further, the “Enhancement of carbonation sensation and pungency” value in the data set on expert panelists [3] (polygodial 400 ppb) is “pungency appeared with enhanced carbonation sensation”. Moreover, the “Evaporating temperature at which polygodial is decomposed” value in data set [4] is “more than 150 °C”.
With `C/C=C/C=C\CC/C=C/C(=O)NCC(C)C` [spilanthol, (2E,6Z,8E)-N-Isobutyl-2,6,8-decatrienamide, reference compound], the “Timing of the effect of enhancing carbonation sensation” value in the data set with expert panelists [2] is given as “relatively delayed”.
